Series [1] concerns KBH5.0 (variant that overexpresses BCRP). The series can be described thus: Cytotoxicity on KBH5.0 (overexpresses BCRP). To be noted: for substrate for BCRP: not told. It counts as cell-based. The method, then:
(§1) The cytotoxicity was determined using the MTT-microtiter plate tetrazolinium cytotoxicity assay (MTA). The human lymphoblast RPMI 8402 and its camptothecin-resistant variant cell line, CPT-K5 was provided by Dr. Toshiwo Andoh (Aichi Cancer Center Research Institute, Nagoya, Japan). (36) The P388 mouse leukemia cell line and its CPT-resistant TOP1-deficient variant P388/CPT45 (37) were obtained from Michael R. Mattern and Randal K. Johnson (GlaxoSmithKline, King of Prussia, Pa.). The KB3-1 cell line and its multidrug-resistant variant KBV-1 (38) were obtained from K. V. Chin (The Cancer Institute of New Jersey, New Brunswick, N.J.). The KBH5.0 cell line as noted previously (21) was derived from KB3-1 by stepwise selection against Hoechst 33342. The cytotoxicity assay was performed using 96-well microtiter plates. Cells were grown in suspension at 37° C. in 5% CO2 and maintained by regular passage in RPMI medium supplemented with 10% heat inactivated fetal bovine serum, L-glutamine (2 mM), penicillin (100 U/mL), and Streptomycin (0.1 mg/mL). For determination of IC50, cells were exposed continuously for FOUR days to varying concentrations of drug, and MTT assays were performed at the end of the fourth day. […] All assays were performed at least twice in six replicate wells.
(§2) The cytotoxicity of the representative compounds of the invention were also tested on cell line KB3-1 (parent cell line), KBV-1 (a variant that overexpresses efflux transporter MDR1) and KBH5.0 (a variant that overexpresses BCRP). Differences in the relative cytotoxicity between the parent and variant cell lines may be indicative of a compound that is a substrate for an efflux transporter. […] Accordingly, compounds of the invention of formula I may be useful to treat tumors that are resistant to other anticancer agents, especially anticancer agents that are susceptible to efflux by BCRP (e.g. anthracyclines, mitoxantrone, topotecan, irinotecan, bisanthrone, doxorubicin, daunorubicin, and epirubin.

Series [2] deals with CPT-K5 (camptothecin-resistant variant of RPMI 8402). The series can be described thus: Test B. MTT cytotoxicity assay, CPT-K5. Type of series: cell-based, human. How it is done: (§3) Test B. Cytotoxic Assays (Cancer Cell Lines and Efflux Transporter Cell Lines)
as §1
(In general: Formazan colour is commonly taken as a measure of viable cells.)

The test system of series [3] is P388 mouse leukemia cell line. The series can be described thus: Test B. MTT cytotoxicity assay, P388. It counts as cell-based. The method, then:
as §3, §1

In the next series the test system is KB3-1 cell line. The series can be described thus: Cytotoxicity on KB3-1 (parent cell line). Type of series: cell-based. How it is done:
as §1, §2

The next series concerns the target T1, human topoisomerase I (Homo sapiens, UniProt P11387).
T1 construct: unnamed fusion partner (recombinant fusion protein, T7 expression system); made in house; host or cells: Escherichia coli
T1 sequence (P11387 1-765): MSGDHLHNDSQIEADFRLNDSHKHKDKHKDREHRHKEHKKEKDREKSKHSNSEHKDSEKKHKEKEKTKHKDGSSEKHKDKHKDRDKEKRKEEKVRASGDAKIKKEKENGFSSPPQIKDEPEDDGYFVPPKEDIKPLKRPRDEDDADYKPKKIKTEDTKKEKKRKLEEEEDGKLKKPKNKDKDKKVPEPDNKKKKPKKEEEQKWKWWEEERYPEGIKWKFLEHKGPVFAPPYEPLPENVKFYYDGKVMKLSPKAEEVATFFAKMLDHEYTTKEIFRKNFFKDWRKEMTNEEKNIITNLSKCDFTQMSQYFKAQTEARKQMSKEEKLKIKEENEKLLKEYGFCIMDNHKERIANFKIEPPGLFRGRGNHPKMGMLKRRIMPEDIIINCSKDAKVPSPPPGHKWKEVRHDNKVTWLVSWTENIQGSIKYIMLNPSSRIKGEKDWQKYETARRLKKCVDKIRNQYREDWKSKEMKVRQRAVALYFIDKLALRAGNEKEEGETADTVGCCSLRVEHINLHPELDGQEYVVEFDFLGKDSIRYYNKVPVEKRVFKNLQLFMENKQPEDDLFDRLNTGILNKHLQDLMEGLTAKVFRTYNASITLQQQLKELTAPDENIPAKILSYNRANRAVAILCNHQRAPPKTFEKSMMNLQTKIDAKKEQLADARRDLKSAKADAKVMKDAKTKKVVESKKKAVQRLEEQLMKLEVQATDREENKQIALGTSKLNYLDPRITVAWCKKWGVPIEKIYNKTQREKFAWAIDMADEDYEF
Nature of the series: Test A. Topoisomerase I-mediated DNA cleavage assay. Type of series: biochemical. Conditions: Relative Effective Concentration; relative to camptothecin arbitrarily assumed as 0.2; same 10% cleavage on plasmid DNA. From the text: Test A. Topoisomerase I—Mediated DNA Cleavage Assay Human topoisomerase I was expressed in Escherichia coli and isolated as a recombinant fusion protein using a T7 expression system as described previously (31). Plasmid YepG was also purified by the alkali lysis method followed by phenol deproteination and CsCl/ethidium isopycnic centrifugation method as described (32). The 3′ end labeling of the plasmid was accomplished by digestion with a restriction enzyme followed by end filling with Klenow polymerase as previously described (33). The cleavage assays were performed as previously reported (34,35). The drug and the DNA in presence of topoisomerase I was incubated for 30 min at room temperature. The reactions were terminated by the addition of 5 μL of 5% SDS and 1 mg/mL […] with an additional 1 h of incubation at 37° C. […] After development of the gels, typically 24-h exposure was used to obtain autoradiograms outlining the extent of DNA fragmentation. Topoisomerase I-mediated DNA cleavage values are reported as Relative Effective Concentration (REC). […] Results for the assay for representative compounds of the invention of formula I along with comparison compounds are shown in Table 1.

Series [4] has as its system P388/CPT45 (CPT-resistant TOP1-deficient variant of P388). Nature of the series: Test B. MTT cytotoxicity assay, P388/CPT45. Type of series: cell-based, mouse. The method, then:
as §3, §1

Series [5] concerns RPMI 8402 human lymphoblast cells. The series can be described thus: Test B. MTT cytotoxicity assay, RPMI8402. Type of series: cell-based. The method, then:
as §3, §1

Series [6] deals with KBV-1 (variant that overexpresses efflux transporter MDR1). Nature of the series: Cytotoxicity on KBV-1 (overexpresses MDR1). It counts as cell-based. The method, then:
as §1, §2

In a further series the test system is BCRP. Nature of the series: Cytotoxicity on KBH5.0 (overexpresses BCRP). It counts as cell-based. To be noted: human. The method, then:
as §1, §2

A short description of series [7]: Cytotoxicity on KB3-1 (parent cell line). To be noted: human. Type of series: cell-based. The method, then: as §1, §2
For a further series, the system named is MDR1. The series can be described thus: Cytotoxicity on KBV-1 (overexpresses MDR1). Type of series: cell-based. Conditions: human. How it is done:
as §1, §2

Setting [8] is: Homo sapiens, CPT-K5, 96 h, read-out: Cytotoxicity IC50 CPT-K5.
Where [9] appears, read: Mus musculus, P388, 96 h, read-out: Cytotoxicity IC50 P388.
[10] abbreviates: Mus musculus, P388CPT45, 96 h, read-out: Cytotoxicity IC50 P388/CPT45.
Where [11] appears, read: Homo sapiens, RPMI 8402, 96 h, read-out: Cytotoxicity IC50 RPMI8402.

pIC50: −log10 of the molar value. Where two headings read alike, the source gives them in different places. Bounds are passed on as bounds.

With `COc1cc2c(C(=O)NCC(C)(C)N(C)C)cc3c4cc5c(cc4ncc3c2cc1OC)OCO5` [Compound 31, 2,3-Dimethoxy-N-(2-(dimethylamino)-2-methylpropyl)-8,9-methylene-dioxybenzo[i] phenanthridine-12-carboxamide], the pIC50 in series [1] is 8.40; in series [2], 6.10; in series [3], 8.70; in the series on KB3-1 cell line, 9.00; in [4] (P388/CPT45, four days continuous exposure, MTT, read-out: Cytotoxicity IC50 P388/CPT45) it was 6.60; in series [5], 8.70. The compound also gave a pIC50 in [6] of 7.52. Moreover, the “substrate for BCRP” value in series [1] is given as “not substrates for BCRP”. In addition, on human topoisomerase I, the “TOP1 Mediated DNA Cleavage (REC Value)” value is on record as 0.1.

`COc1cc2c(C(=O)NCC(C)(C)N(Cc3ccccc3)Cc3ccccc3)cc3c4cc5c(cc4ncc3c2cc1OC)OCO5` [Compound 32, N-(2-(Dibenzylamino)-2-methylpropyl)-2,3-dimethoxy-8,9-methylene-dioxybenzo[i]phenanthridine-12-carboxamide]: the pIC50 in series [1] is 6.22; in series [2] it was 5.30; in series [3] it was 7.52; in the series on KB3-1 cell line it was 7.70; in series [4], 5.89; in series [5] it was 7.22. The pIC50 in series [6] is 5.54. Also, the “TOP1 Mediated DNA Cleavage (REC Value)” value on human topoisomerase I was determined as 1.5.

In general, IC50 refers to the concentration that inhibits the measured activity by half. Usually melting point stands for the temperature of the solid-liquid transition. Consider `COc1cc2cc(C(=O)NCC(C)(C)N(C)C)c3c4cc5c(cc4ncc3c2cc1OC)OCO5` [Compound 34, 2,3-Dimethoxy-8,9-methylenedioxybenzo[i]phenanthridine-11-carboxylic acid 2-(dimethylamino)-2-methylpropylamide], for which the melting point lay in the range of 222 to 225 °C. Also, in series [1], the “substrate for BCRP” value is “not substrates for BCRP”. In the series with BCRP, the midpoint of inhibition, the IC50 at 4 days, lay at 10 nM. Further, the pIC50 in series [2] (setting [8]) is 6.30. Also, the pIC50 in [3] (setting [9]) was 8.70. Besides, in series [7], the IC50 at 4 days was 3 nM. Also, on human topoisomerase I, the “TOP1 Mediated DNA Cleavage (REC Value)” value is 0.09. In addition, in series [4] (setting [10]), the pIC50 is 6.64. Further, the pIC50 in series [5] (setting [11]) is 8.52. For the same compound, the half-inhibitory concentration (IC50) at 4 days with MDR1 came out at 65 nM.

For `COc1cc2cc(C(=O)NCCC(C)(C)N(C)C)c3c4cc5c(cc4ncc3c2cc1OC)OCO5` [Compound 44, 2,3-Dimethoxy-8,9-methylenedioxybenzo[i]phenanthridine-11-carboxylic acid 3-(dimethylamino)-3-methylbutylamide], the melting point lay within 233 to 235 °C. In the series with BCRP, this compound yielded a concentration for half-maximal inhibition (IC50) at 4 days of 470 nM. Moreover, the pIC50 in series [2] (setting [8]) is 5.30. In series [3] (setting [9]), the pIC50 is 6.57. Also, in [7], the IC50 at 4 days was 240 nM. Also, the “TOP1 Mediated DNA Cleavage (REC Value)” value on human topoisomerase I is 0.4. Besides, in series [4] (setting [10]), the pIC50 was 5.90. In addition, the pIC50 in [5] (setting [11]) is 6.82. The same compound registered an IC50 at 4 days in the series on MDR1 greater than 10000 nM.

As to `COc1cc2cc(C(=O)NCCCC(C)(C)N(C)C)c3c4cc5c(cc4ncc3c2cc1OC)OCO5` [Compound 45, 2,3-Dimethoxy-8,9-methylenedioxybenzo[i]phenanthridine-11-carboxylic acid 4-(dimethylamino)-4-methylpentylamide], the melting point fell in the range of 239 to 242 °C. This compound showed an IC50 at 4 days with BCRP of 850 nM. In addition, the pIC50 in series [2] (setting [8]) was 5.26. In addition, the pIC50 in series [3] (setting [9]) is 6.55. Further, in series [7], the half-inhibitory concentration (IC50) at 4 days was determined as 210 nM. Moreover, on human topoisomerase I, the “TOP1 Mediated DNA Cleavage (REC Value)” value is reported as 2.5. For the same compound, the pIC50 in series [4] (setting [10]) was 5.49. In series [5] (setting [11]), the pIC50 was 6.55. Besides, in the series with MDR1, the IC50 at 4 days was greater than 10000 nM.

Values taken from patent US10179789B2, “Methylenedioxybenzo [I] phenanthridine derivatives used to treat cancer” (Rutgers, The State University of New Jersey, priority 2009, dated 2019).
